Source: article PMC12162873, “Modulating phosphatase DUSP22 with BML-260 ameliorates skeletal muscle wasting via Akt independent JNK-FOXO3a repression” (EMBO Molecular Medicine, 2025)
“And” between values parts separate entries of the source, which are not always exact repeats. Equal values may be shown once. “Also recorded” adds a separate entry of the source. Read-outs that look alike come from different tables or passages of the source.

Legend:
C2C12 myotubes = experiment: Western blotting of C2C12 myotubes; format: cell-based, mouse
Description: C2C12 murine skeletal muscle myoblasts were purchased from Koram Biotech Corp. (Seoul, Republic of Korea). Prior to experiments, mycoplasma contamination was eliminated using the MycoXpert Mycoplasma Removal Reagent (MYX-B, CAPRICORN) following the manufacturer’s protocol. To ensure complete removal, all cells were passaged three times after treatment before being used in subsequent experiments. No STR profiling was recently undertaken. Myoblasts were cultured in growth media (GM), containing Dulbecco’s modified Eagle’s medium (DMEM), 10% fetal bovine serum, and 1% penicillin and streptomycin (PenStrep). C2C12 myoblasts were differentiated into myotubes at more than 80% confluence by culture in differentiation media (DM), containing DMEM supplemented with 2% horse serum and PenStrep, for 96 h. To induce atrophy, the myotubes were treated with DM plus 10 μM Dex for 24 h. BML-260 and SP600125 were purchased from Santa Cruz Biotechnology, TX, USA (cat. no. sc-223822 and sc-200635).
Western blotting was carried out using the previously published protocol (Lee et al, [2020]). The NIH imaging software Image J 64 was used for densitometry analysis of the gel bands. The primary and secondary antibodies used in this study are shown in the reagent and tools table. Chemiluminescence was used to detect the secondary antibody. […]

[1] = Pharmacokinetics analysis, TA muscle (LC-MS/MS); format: in vivo, mouse; conditions: for concentration at 0.5 h / concentration at 1 h / concentration at 1.5 h / concentration at 2 h / concentration at 6 h: male, C57BL/6J, mouse, tibialis anterior (TA) muscle, intraperitoneal, 5 mg/kg
Description: Assessment of BML-260 pharmacokinetics (PK) was carried out by the company Chaon, Yongin-si, Republic of Korea. BML-260 was administered intraperitoneally at a dose of 5 mg/kg in an injection volume of 10 mL/kg. A total of 21 6-week-old male C57BL/6J mice were divided into two groups as follows: 1) PK (plasma) group (3 mice) and 2) PK (TA muscle) group (18 mice across 6 time points).
For the PK (plasma) group, blood samples were collected at 0.5, 1, 1.5, 2, 6, 12, and 24 h after administration, using orbital sinus collection. Blood was centrifuged to obtain plasma that was then stored at −80 °C. For the PK (TA muscle) group, mice were euthanized at 0.5, 1, 1.5, 2, 6, and 12 h post-administration. The TA muscle was weighed and stored at −80 °C.
BML-260 levels in plasma and tissue samples were analyzed with liquid chromatography-tandem mass spectrometry (LC-MS/MS) using an Agilent 1200 HPLC system coupled with an AB Sciex 4000 QTrap MS/MS (Agilent Technologies, CA, USA). Quantification limits were determined based on a signal-to-noise ratio greater than 10, with precision below 20% and accuracy between 80% and 120%.

[2] = tested on: 15-month-old C57BL/6J male mice; experiment: Assessment of potential organ toxicity (liver, heart, kidney); format: in vivo, mouse; parameters: Kidney mass / Liver mass / heart mass / Kidney mass, Average / Liver mass, Average / heart mass, Average: unit not given here; conditions: 5 mg/kg IP every 24 h for 6 weeks
Description: To assess the effect of BML-260 treatment on the liver, heart and kidney, 15-month-old C57BL/6J male mice were treated as follows: 1) Vehicle (DMSO in PBS pH 7.4 with 5% Tween 80) alone, 2) 5 mg/kg BML-260 (n = 4 per group). BML-260 was administered via IP delivery every 24 h for 6 weeks. The mice were then sacrificed and the liver, kidneys and heart were weighed and photographed.
A) Photographs of the kidneys, liver, and heart after 6 weeks treatment with 5 mg/kg in 15 month-old mice. (n=4) B) Kidney(p=0.4403), liver(0.5545), and heart(0.5349) mass. ns=not statistically significant. n represents biological replicates analyzed by Student’s t test. Error bars represent the standard error of the mean (SEM).
(1 picture or pasted object on this page, not shown here)

[3] = 5 mg/kg IP, as read by referee #2

## O=C(O)c1ccc(N2C(=O)C(=Cc3ccccc3)SC2=S)cc1 (stereo in doubt) [BML-260]
C2C12 myotubes; Dex-treated myotubes
  atrogin-1, MuRF-1 and DUSP22 levels, western blot: reduced
C2C12 myotubes; summary statement of the discussion
  Akt activity: not upregulated
[1]; 5 mg/kg (IP), 0.5 h, TA muscle, dilution factor 4, individual animals
  Muscle Conc.: 0.350 µg/g and 0.280 µg/g
[1]; 5 mg/kg (IP), 0.5 h, TA muscle, individual animals
  Muscle Conc. before dilution factor: 87.62 ng/mL and 70.09 ng/mL
[1]; 5 mg/kg (IP), 1 h, TA muscle, dilution factor 4, individual animals
  Muscle Conc.: 0.335 µg/g and 0.367 µg/g
[1]; 5 mg/kg (IP), 1 h, TA muscle, individual animals
  Muscle Conc. before dilution factor: 83.78 ng/mL and 91.76 ng/mL
[1]; 5 mg/kg (IP), 1.5 h, TA muscle, dilution factor 4, individual animals
  Muscle Conc.: 0.220 µg/g and 0.191 µg/g
[1]; 5 mg/kg (IP), 1.5 h, TA muscle, individual animals
  Muscle Conc. before dilution factor: 54.90 ng/mL and 47.79 ng/mL
[1]; 5 mg/kg (IP), 2 h, TA muscle, dilution factor 4, individual animals
  Muscle Conc.: 0.165 µg/g and 0.133 µg/g
[1]; 5 mg/kg (IP), 2 h, TA muscle, individual animals
  Muscle Conc. before dilution factor: 41.20 ng/mL and 33.33 ng/mL
[1]; 5 mg/kg (IP), 6 h, TA muscle, dilution factor 4, individual animals
  Muscle Conc.: 0.013 µg/g and 0.024 µg/g
[1]; 5 mg/kg (IP), 6 h, TA muscle, individual animals
  Muscle Conc. before dilution factor: 3.25 ng/mL and 5.89 ng/mL
[1]; 5 mg/kg (IP), 12 h, TA muscle, dilution factor 4, individual animals
  Muscle Conc.: BQL
[1]; 5 mg/kg (IP), 12 h, TA muscle, individual animals
  Muscle Conc. before dilution factor: 1.21 ng/mL and 0.79 ng/mL and 1.75 ng/mL
[1]; 5 mg/kg (IP), 12 h, TA muscle, n = 3
  Muscle Conc., Mean: BQL
[1]; 5 mg/kg IP
  delay until peak detection in skeletal muscle (tibialis anterior): approximately 20 min
  skeletal muscle level relative to that needed for enzyme inhibition: may not reach levels where it can function as an enzymatic inhibitor
[1]; [3]
  peak muscle level: ~ 0.35 ug/g tissue
  time of peak muscle level: ~ 1 hour
[1]; crude estimate of referee #2 with 1 g tissue = 1 ml
  half maximal inhibitor concentration in muscle: ~ 0.5 uM
[1]; 5 mg/kg (IP), 0.5 h, TA muscle, dilution factor 4, individual animals, read-out: Muscle Conc.
  concentration at 0.5 h: 338 ng/g
[1]; 5 mg/kg (IP), 0.5 h, TA muscle, individual animals, read-out: Muscle Conc. before dilution factor
  concentration at 0.5 h: 84.6 ng/mL
[1]; 5 mg/kg (IP), 0.5 h, TA muscle, n = 3, read-out: Muscle Conc., Mean
  concentration at 0.5 h: 323 ng/g
[1]; 5 mg/kg (IP), 1 h, TA muscle, dilution factor 4, individual animals, read-out: Muscle Conc.
  concentration at 1 h: 347 ng/g
[1]; 5 mg/kg (IP), 1 h, TA muscle, individual animals, read-out: Muscle Conc. before dilution factor
  concentration at 1 h: 86.7 ng/mL
[1]; 5 mg/kg (IP), 1 h, TA muscle, n = 3, read-out: Muscle Conc., Mean
  concentration at 1 h: 350 ng/g
[1]; 5 mg/kg (IP), 1.5 h, TA muscle, dilution factor 4, individual animals, read-out: Muscle Conc.
  concentration at 1.5 h: 231 ng/g
[1]; 5 mg/kg (IP), 1.5 h, TA muscle, individual animals, read-out: Muscle Conc. before dilution factor
  concentration at 1.5 h: 57.7 ng/mL
[1]; 5 mg/kg (IP), 1.5 h, TA muscle, n = 3, read-out: Muscle Conc., Mean
  concentration at 1.5 h: 214 ng/g
[1]; 5 mg/kg (IP), 2 h, TA muscle, dilution factor 4, individual animals, read-out: Muscle Conc.
  concentration at 2 h: 166 ng/g
[1]; 5 mg/kg (IP), 2 h, TA muscle, individual animals, read-out: Muscle Conc. before dilution factor
  concentration at 2 h: 41.5 ng/mL
[1]; 5 mg/kg (IP), 2 h, TA muscle, n = 3, read-out: Muscle Conc., Mean
  concentration at 2 h: 155 ng/g
[1]; 5 mg/kg (IP), 6 h, TA muscle, dilution factor 4, individual animals, read-out: Muscle Conc.
  concentration at 6 h: 16 ng/g
[1]; 5 mg/kg (IP), 6 h, TA muscle, individual animals, read-out: Muscle Conc. before dilution factor
  concentration at 6 h: 3.9 ng/mL
[1]; 5 mg/kg (IP), 6 h, TA muscle, n = 3, read-out: Muscle Conc., Mean
  concentration at 6 h: 17 ng/g
[2]
  kidney, liver and heart appearance and mass: no major difference compared to vehicle-treated mice; also recorded: no gross significant change
[2]; individual animals
  Kidney mass: 4.5487 and 5.186 and 4.22 and 4.517
  Liver mass: 49.3264 and 63.6644 and 45.6088 and 64.8958
  heart mass: 3.6875 and 4.058 and 4.981 and 4.532
[2]; n = 4
  Kidney mass, Average: 4.6181
  Liver mass, Average: 55.8738
  heart mass, Average: 4.315
